In PMC7392643, “Antibiotic fidaxomicin is an RdRp inhibitor as a potential new therapeutic agent against Zika virus” (BMC Medicine, 2020):

Columns and labels:
ZIKV NS5 polymerase = target: T1, ZIKV NS5 polymerase (Zika virus, UniProt A0A024B7W1); test: Polymerase activity assay (non-radioactive primer extension); format: biochemical; conditions: NS5 20 nM, Primer/Template 10 nM, 2 h at 37 °C, quantified by amount of RNA products; read-out: IC50 of RdRp-catalyzed RNA synthesis
T1 construct: NS5 (amino acids 1 to 903); His tag (8x histidine) (N); made in house; host or cells: Escherichia coli (Rosetta)
Description: ZIKV NS5 polymerase activity was determined using a primer extension reaction with a fluorescently labeled RNA primer/RNA template complex (P/T) as described by Lu et al.. Briefly, fluorescently labeled oligonucleotide primer (Cy5-RNA) and unlabeled RNA template were mixed and then slowly cooled down for annealing. A typical primer extension reaction was performed by ZIKV NS5 polymerase at various concentrations, followed by incubation for 2 h at 37 °C. To determine the inhibitory activity of fidaxomicin, the polymerase reactions were initiated by addition of fidaxomicin at gradient concentrations ranging between 0 and 200 μM. The products were detected by denaturing polyacrylamide gel electrophoresis (Urea PAGE), and the results were scanned using an Odyssey infrared imaging system (LI-COR Biosciences, Lincoln, NE). The images were analyzed, and proper RNA bands were quantified using Image J software version 1.52a (NIH, Bethesda, MD, USA).

ZIKV (ZG-01 strain) = test: Antiviral efficacy in ZIKV-infected Ifnar1-/- mice, i.v. dosing; format: in vivo; conditions: for Median survival: vehicle 8.5 days
Description: RNA from cell supernatants or from mouse tissues (brain and testis) was prepared with RaPure Viral RNA/DNA Kit (Magen, Guangzhou, China) according to the manufacturer’s instructions. The first-strand cDNA was synthesized using random hexamer primers with the Revert Aid Reverse Transcription Kit (Thermo Fisher Scientific, Rockford, IL, USA), and real-time PCR was carried out by using LightCycler® 480 Probes Master (2× reaction mix buffer including DNA polymerase) (no. 04887301001, Roche, Basel, Switzerland). Virus concentration was determined by interpolation onto an internal standard curve made up of a 7-point dilution series of in vitro transcribed RNA and tissue weight to quantify ZIKV RNA as copies/gram tissue. Primer sets used for real-time PCR are shown in Additional file 1: Table S1. Reverse transcription and real-time PCR were performed for at least three times.
For ZIKV infection and antiviral treatment studies, mice were randomly assigned to groups (n = 12–13/group). Male and female 5-week-old Ifnar1^−/− mice were infected subcutaneously (s.c.) with ZIKV (ZG-01 strain, 2 × 10^4 PFU for each mouse) 1 h before administration of treatment agents. Compounds were prepared in sterile pharmaceutical dosage form of 1:10:89 (DMSO : Tween80 : 5% glucose solution) less than 4 h prior to administration in mice. Fidaxomicin was administered by tail vein injection daily at 20 or 10 mg/kg for 7 days. The identity of the treatment groups was blinded to the researcher administering treatments. Survival, disease signs, and the weight of each mouse were recorded on day 0 and then every other day from 1 to 15 days post-infection (dpi). Mice were humanely euthanized if they could no longer right themselves or were unresponsive to stimuli. Tissues, including the brains and testes, were collected from each animal. Part of each tissue was fixed in 4% paraformaldehyde or in PBS for at least 24 h prior to paraffin embedding and sectioning for use in immunohistochemistry analysis, immunofluorescence analysis, or analysis of viral RNA. Total RNA was extracted from tissues, and ZIKV RNA was quantified as described above.
Immunofluorescence assay was carried out on paraffin-embedded mouse brain and testis tissue slides, incubated with an anti-ZIKV E antibody (1:500, BioFront Technologies, Tallahassee, FL, USA). The secondary antibody was Rhodamine Red™-X (RRX) AffiniPure F (ab')2 Fragment Goat Anti-Mouse IgG (1:500, AB_2338781, Jackson ImmunoResearch Laboratories, Inc. West Grove, PA, USA), and 4-,6-diamidino-2-phenylindole (DAPI, 1:1000, Sangon Biotech, Shanghai, China) was used to stain the nuclei. The immunofluorescent images were taken with an inverted microscope (Carl Zeiss, Oberkochen, Germany). For histologic staining, the fixed tissues were dehydrated, embedded in paraffin, sectioned, rehydrated, and stained with hematoxylin and eosin (H/E). The H/E-stained sections were evaluated for viral-induced neuropathology. […] histological examination was performed by a board-certified veterinary pathologist. Each slide was auto scanned by Axio Scan Z1 (Carl Zeiss, Oberkochen, Germany).

ZIKV MR766 strain = test: In vitro antiviral assay, plaque assay, ZIKV MR766; format: cell-based; conditions: Zika virus, 48 h
Description: Various cell lines, including SNB19 (6 × 10^4/well, 10% FBS DMEM), A172 (7 × 10^4/well, 10% FBS DMEM), Vero (6 × 10^4/well 10% FBS DMEM), Huh7 (7 × 10^4/well, 10% FBS DMEM), HUVECs (7 × 10^4/well, 15% FBS M199 medium supplemented with 2 mM L-glutamine, 0.02 mg/mL endothelial cell growth supplement, and 0.05 mg/mL heparin), and A549 (6 × 10^4/well, 5% FBS DMEM), were plated in 12-well plates and allowed to attach overnight, followed by infection with ZIKV (ZG-01 strain or MR766 strain, respectively, at indicated MOI) in the presence of different concentrations of fidaxomicin, ribavirin, or vehicle control for 1 h, followed by two washes with 1 × PBS and incubated with fresh medium (without virus) consisting of corresponding concentrations of the compounds for further 48 h. The cell supernatants were collected to quantify ZIKV infection by plaque assay as previously described [47] or by RT-qPCR.

[1] = Description: a. […] Data are expressed as mean ± SD. WBC: white blood cells; Lymph: lymphocytes; Mon: monocytes; Gran: granulocytes; RBC: red blood cells; HGB: hemoglobin concentration; HCT: hematocrit; MCV: mean corpuscular volume; MCH: mean corpuscular hemoglobin; MCHC: mean corpuscular hemoglobin concentration; RDW: red blood cell distribution width; PLT: platelets; MPV: mean platelet volume; PDW: platelet distribution width.
a. […] Data are expressed as mean ± SD. ALT: alanine aminotransferase; AST: aspartate aminotransferase; T-BIL: total bilirubin; ALB: albumin; γ-GT: γ-glutamyltransferase; ALP: alkaline phosphatase; TBA: total bile acid; BUN: blood urea nitrogen; UA: uric acid; CR: creatinine; T-CHO: total cholesterol; TG: triglyceride.
a. […] Data are expressed as mean ± SD.

T1 sequence (A0A024B7W1 2521-3423): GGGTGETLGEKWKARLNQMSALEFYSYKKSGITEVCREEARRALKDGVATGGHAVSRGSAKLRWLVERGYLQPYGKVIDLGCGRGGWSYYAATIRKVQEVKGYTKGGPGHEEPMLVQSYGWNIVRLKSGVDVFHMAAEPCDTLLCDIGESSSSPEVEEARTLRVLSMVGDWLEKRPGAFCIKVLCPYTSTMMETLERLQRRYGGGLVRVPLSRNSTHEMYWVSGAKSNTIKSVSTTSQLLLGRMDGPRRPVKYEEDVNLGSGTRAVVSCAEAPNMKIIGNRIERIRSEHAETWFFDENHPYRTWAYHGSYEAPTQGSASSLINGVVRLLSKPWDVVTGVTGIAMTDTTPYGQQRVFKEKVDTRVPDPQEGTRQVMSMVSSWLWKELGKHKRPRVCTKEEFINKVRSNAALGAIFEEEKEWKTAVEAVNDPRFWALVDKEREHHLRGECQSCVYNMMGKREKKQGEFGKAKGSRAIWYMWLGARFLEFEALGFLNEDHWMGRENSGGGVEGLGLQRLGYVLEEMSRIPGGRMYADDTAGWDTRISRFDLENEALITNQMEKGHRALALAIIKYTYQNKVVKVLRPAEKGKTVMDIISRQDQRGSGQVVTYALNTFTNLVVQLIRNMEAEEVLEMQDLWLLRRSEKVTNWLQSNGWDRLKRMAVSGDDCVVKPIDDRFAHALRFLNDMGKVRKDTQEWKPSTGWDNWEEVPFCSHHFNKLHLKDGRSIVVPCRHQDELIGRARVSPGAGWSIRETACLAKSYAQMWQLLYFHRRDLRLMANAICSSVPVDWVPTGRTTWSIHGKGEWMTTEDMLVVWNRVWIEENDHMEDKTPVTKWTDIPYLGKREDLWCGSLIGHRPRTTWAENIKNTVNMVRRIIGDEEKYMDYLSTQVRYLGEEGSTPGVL

## CCc1c(Cl)c(O)c(Cl)c(O)c1C(=O)O[C@H]1[C@H](O)[C@H](OC)[C@H](OC/C2=C\C=C\C[C@H](O)/C(C)=C/[C@H](CC)[C@@H](O[C@@H]3OC(C)(C)[C@@H](OC(=O)C(C)C)[C@H](O)[C@@H]3O)/C(C)=C/C(C)=C/C[C@@H]([C@@H](C)O)OC2=O)O[C@@H]1C [Fidaxomicin]
ZIKV NS5 polymerase
  IC50: 10.9 µM
ZIKV (ZG-01 strain); 10 mg/kg i.v. daily for 7 days
  Median survival: 14 days
ZIKV (ZG-01 strain); 20 mg/kg i.v. daily for 7 days
  Median survival: over 15 days
ZIKV (ZG-01 strain); 20 mg/kg/day, between 8 and 15 dpi, vs vehicle
  body weight loss: obvious protection from weight loss
ZIKV (ZG-01 strain); 10 and 20 mg/kg vs vehicle
  ZIKV load in the brains and testes (immunostaining of ZIKV E): reduced
ZIKV (ZG-01 strain); 15 dpi, 10 and 20 mg/kg groups, RT-qPCR
  viral RNA levels in the brain and testis: significantly decreased
ZIKV (ZG-01 strain); H/E staining
  neuronal necrosis in hippocampal pyramidal cells: remarkably reduced
ZIKV (ZG-01 strain); both treatment groups vs vehicle, H/E staining
  pathologic damages in the cerebra: remarkably alleviated
ZIKV (ZG-01 strain); both treatment groups, dose-dependent
  number of neurological signs (paralysis, hunching): progressive decrease
ZIKV (ZG-01 strain); both treatment groups, p = 0.0090 and p < 0.0001
  perivascular cuffing of vessels in cerebra: significant decrease
ZIKV (ZG-01 strain); high-dose group (20 mg/kg i.v. daily for 7 days)
  mice protected from mortality: nine out of 13
ZIKV (ZG-01 strain); mice, i.v.
  effective therapeutic doses against ZIKV: 10 to 20 mg/kg
ZIKV (ZG-01 strain); vs vehicle control
  ZIKV E protein in brain and testis tissues (western blotting): significant suppressive effect
ZIKV MR766 strain; A549 cells
  EC50: 13 ± 4.4 µM
  EC90: 42.2 ± 4.6 µM
ZIKV MR766 strain; Huh-7, Huh7 cells
  EC50: 7.3 ± 2.5 µM
  EC90: 16.2 ± 3.9 µM
ZIKV MR766 strain; SNB-19, SNB19 cells
  EC50: 6.8 ± 1.2 µM
  EC90: 9.5 ± 1.5 µM
ZIKV MR766 strain; Vero cells
  EC50: 12.4 ± 3 µM
  EC90: 45.2 ± 6.2 µM
[1]; C57BL/6J (Ifnar1-/-), mouse, in vivo, 10 days
  maximum non-toxic dose: > 200 mg/kg
[1]; Ifnar1-/- C57BL/6J mice, 200 mg/kg, 10-day treatment, mean ± SD
  MPV: 4.95 ± 0.59 fL
[1]; mouse, in vivo, 200 mg/kg
  ALB: 29.11 ± 5.19 g/L
  ALP: 185.3±19.2 U/L
  ALT: 39.1±4.22 U/L
  AST: 130.74±18.3 U/L
  BUN: 31.6 ± 3.54 mg/dL
  CR: 17.62 ± 1.84 µmol/L
  Gran#: 0.92±0.23 10^9/L
  Gran%: 19.82±4.42%
  HCT: 38.96±2.72%
  HGB: 124.14 ± 14.36 g/L
  Lymph#: 3.21±1.01 10^9/L
  Lymph%: 75.75±8.94%
  MCH: 14.73 ± 0.88 pg
  MCHC: 302 ± 21.82 g/L
  MCV: 51.61 ± 1.84 fL
  Mon#: 0.16±0.07 10^9/L
  Mon%: 3.75±0.94%
  PDW: 16.65±0.35
  PLT: 891.6±337.3 10^9/L
  RBC: 7.51±1.44 10^12/L
  RDW: 17.56±1.04%
  T-BIL: 21.14 ± 1.87 µmol/L
  T-CHO: 3.12 ± 1.33 mmol/L
  TBA: 12.75 ± 1.54 µmol/L
  TG: 2.11 ± 0.45 mmol/L
  UA: 182.61 ± 23.8 µmol/L
  WBC: 4.25±1.11 10^9/L
  γ-GT: 2.75±0.81 U/L
